Assay results published in patent US4788200A, “Method and composition for treating arteriosclerosis” (MECT Corporation, priority 1986, dated 1988).

Key:
[1] = tested on: blood platelets; experiment: Anticoagulating function for inhibiting coagulation of blood platelets (aggregometer, PRP, arachidonic acid); format: cell-based, rabbit (White Japanese native species); settings: for Response (inhibition of coagulation of blood platelets): in vitro, arachidonic acid 50 mcg/ml, rabbit PRP, 37° C., 2 minutes
Description: White Japanese native species male rabbits each having a body weight of from 2.5 to 4.0 kg were used. The state of health of the rabbits was checked by visual examination for such as diarrhea and scabies in the ears, and the number of blood platelets and the hematocrit value of the individual rabbits were determined using the blood taken from the auricular vein of the individual rabbits. Rabbits each having a number of blood platelets of from 30×10^4 to 50×10^4 […] and a hematocrit value of from 30 to 40% were selected and the thus selected rabbits were fed for a pre-breeding period of one week, and then the number of blood platelets and the hematocrit value of the thus bred rabbits were determined again.
Using an injection tube treated with silicone, blood was taken from the auricular artery so that the ratio of blood to a 3.8% sodium citrate solution was 9 to 1 by volume, and the content of the tube was subjected to centrifugal separation at 100 to 140 g for 10 minutes. The supernatant was separated as platelet rich plasma (PRP), and the lower phase was further subjected to centrifugal separation at 450 g or 300 g for 10 minutes to obtain a platelet poor plasma (PPP). After subjecting the PRP to centrifugal separation at 800 g for 10 minutes, precipitated blood platelets were rinsed one time with a 5 m MEDTA deprived of Ca^2+ and MG^2+ and Hepes-Tyrode buffer (pH 7.4), and then suspended in Hepes-Tyrode buffer (pH 7.4) to obtain rinsed blood platelets. In the coagulation experiment, the number of blood platelets in PRP was directly counted by the Brecher-Cronkite method to control the same within the range of from 50×10^4 to 70×10^4 /mm^3.
Using an aggregometer, PRP was added with each of specimen drugs, followed by incubation at 37° C. for a predetermined time period (2 minutes), and an aggregation provoker (arachidonic acid, 50 mcg/ml) was added and then subjected to measurement.
The control drug used was Aspirin.

[2] = tested on: metastasis of cancer; settings: experiments using animals; cited from earlier work
[3] = tested on: cholesterol content of the blood serum; experiment: Effect against hyperlipidemia (Demonstration 1): cholesterol content of blood serum; format: in vivo, mice; settings: for Reduction Rate of Cholesterol in Blood Serum: mice, oral
Description: (§1) Six mice were bred with high cholesterol-cholic acid feeds for 7 days so as to induce hyperlipidemia; one half of the total dose of each compound (I) as set forth in Table 1 was orally administered at the sixth day and the other half was orally administered at the seventh day. After starving the mice for one night, the cholesterol content of the blood serum of the respective mice was determined. It was judged that the tested compound had the desired activity (of reducing fat content of blood) when the cholesterol content of the blood serum was decreased by 15% or more as compared to that of the mice of the control group.

[4] = tested on: lipoproteins precipitated by heparin (corresponding to the fractions of LDL and VLDL); experiment: Effect against hyperlipidemia (Demonstration 2): lipoproteins precipitated by heparin (HPL, LDL and VLDL fractions) in blood serum; format: in vivo, mice; settings: for Decrease of HPL / HPL/Cholesterol ratio: mice, oral; for HPL/Cholesterol ratio: criterion not more than 0.92
Description: as §1, with “group. Similar experiments were conducted as in Example 2, and it was judged that the tested compound had the desired activity (of reducing fat content in blood) when the content of lipoproteins precipitated by heparin (corresponding to the fractions of LDL and VLDL) in the blood serum of the tested group was decreased by 20% or more as compared to that of the mice of control group. Decrease of atheromic β-LDL or increase of HDL could be estimated when the ratio of lipoproteins precipitated by heparin to cholesterol (HPL/cholesterol) was not more than 0.92.” for “group.”

[5] = Test on acute toxicity; format: in vivo, mice; settings: for acute toxicity, changes observed: mice
Description: The compound (I) was administered to mice in an amount of 300 mg/kg orally or abdominally.

## CC(=O)Oc1ccccc1C(=O)O [Aspirin, reference compound]
[1]; 2.5 γ (μg/ml)
  Response (inhibition of coagulation of blood platelets): 100
[2]
  effect of inhibiting metastasis of cancer: have the effect of inhibiting metastasis of cancer

## COc1ccc(-c2nc3sc4ccccc4n3c(=O)c2-c2ccccc2)cc1 [Compound (I), 2-(p-methoxyphenyl)-3-phenylpyrimido[2,1-b]benzothiazole-4(4H)-one]
[3]; from Table 1, fraction of D-thyroxine efficacy
  pharmaceutical efficacy relative to control agent D-thyroxine: about 2/5
[3]; 10 mg/kg
  Reduction Rate of Cholesterol in Blood Serum: 11%
[3]; 25 mg/kg
  Reduction Rate of Cholesterol in Blood Serum: 16%
[4]; from Table 2, fraction of D-thiroxicine efficacy
  pharmaceutical efficacy relative to control agent D-thiroxicine: about 2/5
[4]; 10 mg/kg
  Decrease of HPL: 17%
[4]; 25 mg/kg
  Decrease of HPL: 23%
  HPL/Cholesterol ratio: 0.92
[1]; from Table 3
  efficacy relative to control drug Aspirin: 2.5 times
[1]; 1 γ (μg/ml)
  Response (inhibition of coagulation of blood platelets): 100
[5]; abdominal, 200 mg/kg
  acute toxicity, changes observed: No changes were observed
[5]; oral, 300 mg/kg
  acute toxicity, changes observed: No changes were observed
[5]; mouse, in vivo, 100 mg/kg
  toxicity on successive administration, changes observed: no substantial change was observed

## N[C@H](Cc1cc(I)c(Oc2cc(I)c(O)c(I)c2)c(I)c1)C(=O)O [D-thyroxine, reference compound]
[3]; 10 mg/kg
  Reduction Rate of Cholesterol in Blood Serum: 30%
[4]; 10 mg/kg
  Decrease of HPL: 35%
  HPL/Cholesterol ratio: 0.93

## OCCN(CCO)c1nc(N2CCCCC2)c2nc(N(CCO)CCO)nc(N3CCCCC3)c2n1 [dipyridamol]
[2]
  effect of inhibiting metastasis of cancer: have the effect of inhibiting metastasis of cancer

## Clc1ccccc1CN1CCc2sccc2C1 [ticlopidine]
[2]
  effect of inhibiting metastasis of cancer: have the effect of inhibiting metastasis of cancer
